Results published in publication PMC7539967, “The Plasmodium falciparum eIK1 kinase (PfeIK1) is central for melatonin synchronization in the human malaria parasite. Melatotosil blocks melatonin action on parasite cell cycle” (Journal of Pineal Research, 2020).
“Also recorded” adds a separate entry of the source. Read-outs that look alike come from different tables or passages of the source.

Experiments:
[1] = system: Plasmodium falciparum 3D7; test: In vitro growth assay and flow cytometry analysis (72 h), 3D7; type: cell-based; conditions: for IC50: Plasmodium falciparum
Protocol: (§1) Red blood cells infected with P. falciparum 3D7 or PfeIK1^‐ (iRBC) with 0.3 % initial parasitemia and 1% hematocrit were incubated with different concentrations of compounds Tripbenz (4), Triptosil (5), Triptiofen (6), Tripfuroila (7), and Tripcicloexil (8) ranging from 0.107 to 110 µM, and compounds Melatobenz (9), Melatotosil (10), Melatofuroila (11), and Melatocicloexil (12) ranging from 0.1 to 100 µM for 72 hours at 37°C under mixture of gases. The control group was treated with solvent dimethyl sulfoxide (DMSO) (v/v), with the highest concentration of solvent 0.14%. Chloroquine was used as positive control with concentrations ranging from 0.244 to 250 nM. Parasitemia was determined from dot plots (side scatter versus fluorescence) of at least 10^3 cells acquired on a FACSCalibur flow cytometer using […] software (Becton Dickinson) or an Accuri C6 flow cytometer (Becton Dickinson). Initial gating was carried out with unstained, uninfected erythrocytes to account for erythrocyte auto fluorescence. The concentration responsible for 50% inhibition (IC50) was determined from the compound concentration‐response curve determined with the software GraphPad Prism 6.
(§2) For assays with antimalarials, iRBC were incubated with different concentrations of Atovaquone ranging from 0.02 to 24 nM, or Artemisinin 0.15‐160 nM.
(§3) After 72 hours, iRBC were stained with nucleic acid marker SYBR Green I (1X) (Invitrogen) and mitochondria marker based on membrane potential MitoTracker Deep Red (50 nM) (Invitrogen), and incubated for 20 minutes at 37°C. Final parasitemia was obtained by flow cytometer using a BD Accuri C6 Flow Cytometer, collecting 10^4 cells. Parasitemia was determined by dot plots using FlowJo 5 software.
(§4) At least three independent experiments were performed in triplicate to calculate the IC50 values for each drug.

[2] = system: P. falciparum PfeIK1^‐; test: In vitro growth assay and flow cytometry analysis (72 h), PfeIK1 knockout; type: cell-based, Plasmodium falciparum; conditions: for IC50: Plasmodium falciparum
Protocol: as §1, §2, §3, §4

[3] = system: Plasmodium falciparum 3D7; test: Effect of indole compounds in parasitemia (48 h), 3D7; type: cell-based; conditions: 3D7, 500 nM compound; for activity at 0.5 µM: Plasmodium falciparum, read-out: final parasitemia normalized to control
Protocol: (§5) Red blood cells infected (iRBC) with 3D7 or PfeIK1^‐ (iRBC) with 1% initial parasitemia and 2% hematocrit were incubated with 500 nM of the synthetic indole compounds or 100 nM Melatonin for 48 hours at 37°C under mixture of gases. ^12 The control group received 0.0013% of solvent dimethyl sulfoxide (DMSO).
(§6) After 48 hours, iRBC were double‐stained ^34 with nucleic acid marker SYBR Green I (1X) and mitochondria marker, based on membrane potential, MitoTracker Deep Red (50 nM), and incubated for 20 minutes at 37°C.
(§7) Final parasitemia was obtained by flow cytometer using an Accuri C6 flow cytometer (Becton Dickinson), collecting 10^4 cells. Parasitemia was determined by dot plots using FlowJo 5 software.

[4] = system: P. falciparum PfeIK1^‐; test: Effect of indole compounds in parasitemia (48 h), PfeIK1 knockout; type: cell-based; conditions: Plasmodium falciparum, read-out: final parasitemia normalized to control
Protocol: as §5, §6, §7

[5] = system: P. falciparum PfeIK1^‐; test: Effect of compounds on melatonin action on parasitemia, PfeIK1 knockout; type: cell-based, Plasmodium falciparum; conditions: 500 nM compound + 100 nM melatonin, 48 h, normalized to control
Protocol: (§8) To evaluate the effect of the compounds on melatonin action on parasitemia, iRBC were incubated with 500 nM of compounds for 10 minutes and then along with 100 nM of melatonin for 48 hours at 37°C under mixture of gases.
as §6, §7

[6] = system: Plasmodium falciparum 3D7; test: Effect of compounds on melatonin action on parasitemia, 3D7; type: cell-based; conditions: 3D7, 500 nM compound + 100 nM melatonin, 48 h
Protocol: as §8, §6, §7

[7] = system: P. falciparum GCaMP3 parasites; test: Calcium assay in transgenic PfGCaMP3 parasites; type: cell-based, Plasmodium falciparum; conditions: 500 nM; for cytosolic calcium rise: PfGCaMP3; for Fmax/F0 (maximum fluorescence normalized to baseline): PfGCaMP3, 120 cells
Protocol: Calcium assays were performed using the transgenic P. falciparum GCaMP3 parasites. ^37 PfGCaMP3 cultures were synchronized at least three times with 5% sorbitol before starting the experiments, and parasitemia was maintained between 5% and 8%. PfGCaMP3 parasites were cultivated with 10 nM/mL of WR for selection. Parasites were isolated with saponin (0.016%) and collected by centrifugation 8000 rpm, subsequently washed twice with buffer M, and allowed to settle in a four‐well plate for microscope coated with poly‐L‐lysine for 30 minutes at 37°C with 5% CO2 in buffer M ([…], 5.4 mM KCl, 0.8 mM MgSO4, 5.5 mMD‐glucose, 50 mM MOPS, and 2 mM CaCl2, pH 7.2). The compounds used for measuring calcium assays were as follows: Melatotosil and Triptiofen solubilized in DMSO.
Images were captured using a Nikon Eclipse Ti2 inverted microscope with FITC filter. Images were collected every 10 seconds for 5 minutes, with NIS‐Elements Ar 5.11.01 from Nikon using 60× lens. All experiments were performed at least three independent times in duplicates.

[8] = system: Human Embryonic Kidney cells (HEK293); test: Cytotoxicity Assay in HEK293 cells (MTT); type: cell-based; conditions: 0.107 to 110 µM, 72 h
Protocol: To evaluate toxicity of the new indole compounds in mammalian cells, Human Embryonic Kidney cells (HEK293) were maintained in 75 cm^2 culture flasks (Greiner Bio‐One) at 37°C, 5%CO2 in […] (DMEM), supplemented with 10% fetal bovine serum, NaHCO33.7 g/L (Sigma), 100 U/mL penicillin/, and 100 μg/mL streptomycin in monolayers.
Cells were plated in flat‐bottom 96‐well plates in a density of 10^4 cells per well and incubated for 24 hours in 150 µL media at 37°C, 5%CO2. Cells were then treated with different concentrations of each compound, ranging from 0.107 to 110 µM in 200 µL DMEM for 72 hours at 37°C and 5%CO2. Cells treated with DMSO (v/v) with the highest concentration of solvent 0.14% were used as control.
After incubation, 40 µL of MTT reagent (solution 5 mg/mL in PBS) was added to each well, and cells were incubated for further 3 hours at 37°C and 5% CO2. The media were removed and 100 µL of DMSO was added in each well. Plates were agitated in a shaker for 10 minutes to dissolve precipitates. Absorbance was read at 570 nm in a FlexStation 3 (Molecular Devices). Six experiments were performed independently in triplicates.

[9] = system: P. falciparum (3D7); test: Microscopy evaluation of blood-stage development (Giemsa smears); type: cell-based, Plasmodium falciparum; conditions: for parasites in segmented schizont stage: 48 h, 3D7, Giemsa smears
Protocol: Plasmodium falciparum (3D7) cultures were synchronized by three rounds of 5% sorbitol treatment for 1 hour. ^35 Parasites at ring stage with initial 1% parasitemia and 2% hematocrit were incubated with Triptiofen (6) at concentrations of 1 and 10 µM in 24‐well plates for 48 hours at 37°C under mixture of gases. The DMSO solvent (0.1%) was used as a control. Smears of infected erythrocytes stained with Giemsa were performed at regular intervals (0, 12, 24, 36 and 48 hours after treatment). ^36 Parasite images were acquired under a light microscope (Zeiss) with 100× magnification to assess the parasite's blood development stages. The parasitemia at the end of the experiment was quantified for comparison between groups. Three independent experiments were performed in triplicate. Data were analyzed using software GraphPad Prism 6.

[10] = 72 h, parasitemia by flow cytometry, wild-type 3D7, read-out: IC50 3D7 strain (antimalarials)
[11] = read-out: IC50 PfelK1^‐ strain (antimalarials)
[12] = 3D7, 72 h, read-out: IC50 (µM) 3D7 strain
[13] = read-out: IC50 (µM) PfelK1^‐ strain

| SMILES | IC50 [1, 12] | IC50 [2, 13] | activity at 0.5 µM [3] | activity at 0.5 µM [4] | final parasitemia, compound along with melatonin [5] | ability to abolish the increase in parasitemia triggered by melatonin [6] | decrease in parasitemia compared to treatment with the hormone only [6] | parasitemia normalized to control, compound along with melatonin [6] | toxicity in HEK293 cells [8] | also measured |
| --- | --- | --- | --- | --- | --- | --- | --- | --- | --- | --- |
| C[C@@H]1CC[C@H]2[C@@H](C)C(=O)O[C@@H]3O[C@@]4(C)CC[C@@H]1[C@]32OO4 [Artemisinin, reference compound] | – | – | – | – | – | – | – | – | – | IC50 [1, 10]: 0.0137 µM; IC50 [2, 11]: 0.0188 µM |
| O=C1C(O)=C([C@H]2CC[C@H](c3ccc(Cl)cc3)CC2)C(=O)c2ccccc21 [Atovaquone, reference compound] | – | – | – | – | – | – | – | – | – | IC50 [1, 10]: 0.0004 µM; IC50 [2, 11]: 0.00047 µM |
| CCN(CC)CCCC(C)Nc1ccnc2cc(Cl)ccc12 (stereo not shown) [Chloroquine, reference compound] | – | – | – | – | – | – | – | – | – | IC50 ([1]; 3D7, 72 h, read-out: IC50 3D7 strain (antimalarials)): 0.0099 µM |
| COc1ccc2[nH]cc(CCNS(=O)(=O)c3ccccc3)c2c1 [Melatobenz (9), N‐(2‐(5‐methoxy‐1H‐indol‐3‐yl)ethyl)benzenesulfonamide] | 38.5 ± 1.57 µM | 57.8 µM | 102% | 100% | 105.0 ± 1.97% | – | – | – | – | – |
| COc1ccc2[nH]cc(CCNC(=O)C3CCCCC3)c2c1 [Melatocicloexil (12), N‐(2‐(5‐methoxy‐1H‐indol‐3‐yl)ethyl)cyclohexanecarboxamide] | 35.2 ± 4.14 µM | 47.6 ± 6.43 µM | 104% | 98.3% | 107.0 ± 1.37% | – | – | – | – | – |
| COc1ccc2[nH]cc(CCNC(=O)c3ccco3)c2c1 [Melatofuroila (11), N‐(2‐(5‐methoxy‐1H‐indol‐3‐yl)ethyl)furan‐2‐carboxamide] | 30.9 ± 4.92 µM | 31.9 ± 0.46 µM | 102% | 97.1% | 99.78 ± 2.03% | – | – | – | – | – |
| COc1ccc2[nH]cc(CCNS(=O)(=O)c3ccc(C)cc3)c2c1 [Melatotosil (10), N‐(2‐(5‐methoxy‐1H‐indol‐3‐yl)ethyl)‐4‐methylbenzenesulfonamide] | – | – | – | 97.5% | 106.2 ± 1.55% | able to abolish | 11.69% | 98.07% | – | IC50 (µM) 3D7 strain ([1]; 72 h, parasitemia by flow cytometry, wild-type 3D7): without antimalarial activity; also recorded: No activity; IC50 (µM) PfelK1^‐ strain ([2]; parasitemia by flow cytometry, PfeIK1 knockout): No activity; increase in parasitemia compared to control group [3]: 10%; cytosolic calcium rise [7]: elicits a calcium rise; Fmax/F0 (maximum fluorescence normalized to baseline) [7]: 1.21 ± 0.01 |
| O=S(=O)(NCCc1c[nH]c2ccccc12)c1ccccc1 [Tripbenz (4), N‐(2‐(1H‐indol‐3‐yl) ethyl)benzenesulfonamide] | 18.7 ± 2.5 µM | 36.8 ± 3.44 µM | 100% | 95.6% | – | – | – | – | no toxicity | – |
| O=C(NCCc1c[nH]c2ccccc12)C1CCCCC1 [Tripcicloexil (8), N‐(2‐(1H‐indol‐3‐yl)ethyl)cyclohexanecarboxamide] | 28 ± 4.07 µM | 37.6 ± 2.72 µM | 102% | 101% | 105.5 ± 0.91% | – | – | – | no toxicity | – |
| O=C(NCCc1c[nH]c2ccccc12)c1ccco1 [Tripfuroila (7), N‐(2‐(1H‐indol‐3‐yl)ethyl)furan‐2‐carboxamide] | 17.1 ± 2.6 µM | 23.6 ± 2.2 µM | 101% | 98.5% | 102.3 ± 1.53% | able to abolish | 11.25% | 98.52% | no toxicity | – |
| O=C(NCCc1c[nH]c2ccccc12)c1ccc(Br)s1 [Triptiofen (6), N‐(2‐(1H‐indol‐3‐yl) ethyl)‐5‐bromothiophene‐2‐carboxamide] | 9.76 ± 0.6 µM | 11.8 ± 0.6 µM | 99.8% | 98.7% | 104.1 ± 1.87% | able to abolish | 10% | 100.1% | no toxicity | cytosolic calcium rise [7]: does not trigger a significant cytosolic calcium rise; Fmax/F0 (maximum fluorescence normalized to baseline) [7]: 1.11 ± 0.008; parasites in segmented schizont stage ([9]; 1 µM): 1.33 ± 0.33; parasites in segmented schizont stage ([9]; 10 µM): 2.22 ± 0.32; number of parasites compared to control ([9]; 1 and 10 µM, starting at 36 hours, 3D7): significantly reduces |
| Cc1ccc(S(=O)(=O)NCCc2c[nH]c3ccccc23)cc1 [Triptosil (5), N‐(2‐(1H‐indol‐3‐yl)ethyl)‐4‐methylbenzenesulfonamide] | 19.8 ± 5.33 µM | 30.6 ± 1.55 µM | 100% | 99.3 ± 2.18% | 105.4 ± 2.05% | able to abolish | 9.7% | 100% | no toxicity | – |
